Measurements as given in paper PMC7416818 (Analytical biochemistry, 2020).
Like-named read-outs stand apart in the source and are kept apart here.

Legend:
[1] = target: T1, NNMT (Homo sapiens, UniProt P40261); details: read-out: Literature value Ki, determined by SAHH coupled assay; cited from earlier work
T1 sequence (P40261 1-264): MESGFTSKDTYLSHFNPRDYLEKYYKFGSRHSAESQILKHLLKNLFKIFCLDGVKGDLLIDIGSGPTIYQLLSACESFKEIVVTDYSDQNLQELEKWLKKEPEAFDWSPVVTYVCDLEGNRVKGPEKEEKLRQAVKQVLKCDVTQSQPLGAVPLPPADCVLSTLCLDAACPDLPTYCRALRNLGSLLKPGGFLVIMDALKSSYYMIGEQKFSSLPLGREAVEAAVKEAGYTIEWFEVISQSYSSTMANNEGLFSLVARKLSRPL

[2] = target: T1, NNMT; details: read-out: Literature value Km; cofactor; cited from earlier work
[3] = target: T1, NNMT; assay: FP-based competition binding assay with probe II138
[4] = target: T1, NNMT; assay: SAHH-coupled fluorescence assay; assay type: biochemical; details: linker effect

Row | Ki [3] [µM] | Loss in Ki in comparison with LL320 [4] | Difference of Ki in FP assay in comparison with SAHH coupled assay ([3]; FP Ki versus SAHH-coupled Ki) | Compound | Ki [1] [µM] | Km [2] [µM]
1 |  |  |  | 1 methyl quinoline [1-MQ] | > 100 | 
2 | 20.3 ± 2.9 |  |  | C[S+](CC[C@H](N)C(=O)[O-])C[C@H]1O[C@@H](n2cnc3c(N)ncnc32)[C@H](O)[C@@H]1O (stereo partly drawn) [AdoMet, S-adenosyl-L-methionine] |  | 24 ± 6.8
3 | > 1000 |  |  | NC(=O)c1cccnc1 [NAM, nicotinamide] | > 100 | 
4 |  | about 100 fold | less than 2 fold | NCCCNc1ncnc2c1ncn2[C@@H]1O[C@H](CN(CC#Cc2cccc(C(N)=O)c2)CC[C@H](N)C(=O)O)[C@@H](O)[C@H]1O [compound 10] |  | 
